Laboratory results taken from ChEMBL document CHEMBL4699467, “Progress towards a stable cephalosporin-halogenated phenazine conjugate for antibacterial prodrug applications” (Bioorg Med Chem Lett, 2020).
In brackets after ≈: the same amount, converted by molar mass.

Legend:
Staphylococcus aureus = assay: Antibacterial activity against methicillin-resistant Staphylococcus aureus BAA-1707 assessed as inhibition of bacterial growth incubated for 16 to 18 hrs by CLSI protocol based two fold serial dilution method; format: functional; details: time hrs 16-18
[1] = Stability of the compound in methicillin-resistant Staphylococcus aureus BAA-1707 for 16 to 18 hrs; format: ADME; details: time 16-18 hrs

Row | SMILES | MIC (Staphylococcus aureus) | Stabilty [1]
1 | Oc1c(Br)cc(Br)c2nc3ccccc3nc12 | 1 µM (≈ 0.354 µg/mL) | 
2 | O=C(Cc1cccs1)N[C@@H]1C(=O)N2C(C(=O)OC(c3ccccc3)c3ccccc3)=C(COC(=O)Oc3c(Br)cc(Br)c4nc5ccccc5nc34)CS[C@H]12 | > 100 µM | Stable
